According to ChEMBL document CHEMBL1150977, “A quantitative analysis of kinase inhibitor selectivity” (Nat Biotechnol, 2008):

Experiments:
[1] = target: Myosin light chain kinase, smooth muscle (Homo sapiens, UniProt Q15746)
[2] = target: Serine/threonine-protein kinase MRCK beta (Homo sapiens, UniProt Q9Y5S2)
[3] = target: T1, MAP/microtubule affinity-regulating kinase 4 (Homo sapiens, UniProt Q96L34)
T1 sequence (Q96L34 whole entry): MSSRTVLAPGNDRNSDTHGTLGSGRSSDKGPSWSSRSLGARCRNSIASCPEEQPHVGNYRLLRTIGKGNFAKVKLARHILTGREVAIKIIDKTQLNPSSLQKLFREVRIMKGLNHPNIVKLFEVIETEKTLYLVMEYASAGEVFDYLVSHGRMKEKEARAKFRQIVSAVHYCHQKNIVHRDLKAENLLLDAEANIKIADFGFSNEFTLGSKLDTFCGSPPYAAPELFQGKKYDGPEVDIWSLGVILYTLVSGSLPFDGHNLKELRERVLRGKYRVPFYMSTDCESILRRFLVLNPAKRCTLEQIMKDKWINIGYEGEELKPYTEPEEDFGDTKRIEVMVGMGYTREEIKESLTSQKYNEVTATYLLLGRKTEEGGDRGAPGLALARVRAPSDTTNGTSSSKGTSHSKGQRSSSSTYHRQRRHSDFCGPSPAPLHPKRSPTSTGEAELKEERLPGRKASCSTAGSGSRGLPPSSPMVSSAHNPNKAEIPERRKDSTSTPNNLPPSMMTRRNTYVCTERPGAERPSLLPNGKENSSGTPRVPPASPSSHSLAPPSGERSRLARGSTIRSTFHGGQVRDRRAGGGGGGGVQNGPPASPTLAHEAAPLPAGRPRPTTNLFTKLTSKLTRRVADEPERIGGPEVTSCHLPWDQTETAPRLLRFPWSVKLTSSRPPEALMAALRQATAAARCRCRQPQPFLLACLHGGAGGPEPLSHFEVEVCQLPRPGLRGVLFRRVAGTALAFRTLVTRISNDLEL

Ephrin type-A receptor 6 = target: T2, Ephrin type-A receptor 6 (Homo sapiens, UniProt Q9UF33)
T2 sequence (Q9UF33 whole entry): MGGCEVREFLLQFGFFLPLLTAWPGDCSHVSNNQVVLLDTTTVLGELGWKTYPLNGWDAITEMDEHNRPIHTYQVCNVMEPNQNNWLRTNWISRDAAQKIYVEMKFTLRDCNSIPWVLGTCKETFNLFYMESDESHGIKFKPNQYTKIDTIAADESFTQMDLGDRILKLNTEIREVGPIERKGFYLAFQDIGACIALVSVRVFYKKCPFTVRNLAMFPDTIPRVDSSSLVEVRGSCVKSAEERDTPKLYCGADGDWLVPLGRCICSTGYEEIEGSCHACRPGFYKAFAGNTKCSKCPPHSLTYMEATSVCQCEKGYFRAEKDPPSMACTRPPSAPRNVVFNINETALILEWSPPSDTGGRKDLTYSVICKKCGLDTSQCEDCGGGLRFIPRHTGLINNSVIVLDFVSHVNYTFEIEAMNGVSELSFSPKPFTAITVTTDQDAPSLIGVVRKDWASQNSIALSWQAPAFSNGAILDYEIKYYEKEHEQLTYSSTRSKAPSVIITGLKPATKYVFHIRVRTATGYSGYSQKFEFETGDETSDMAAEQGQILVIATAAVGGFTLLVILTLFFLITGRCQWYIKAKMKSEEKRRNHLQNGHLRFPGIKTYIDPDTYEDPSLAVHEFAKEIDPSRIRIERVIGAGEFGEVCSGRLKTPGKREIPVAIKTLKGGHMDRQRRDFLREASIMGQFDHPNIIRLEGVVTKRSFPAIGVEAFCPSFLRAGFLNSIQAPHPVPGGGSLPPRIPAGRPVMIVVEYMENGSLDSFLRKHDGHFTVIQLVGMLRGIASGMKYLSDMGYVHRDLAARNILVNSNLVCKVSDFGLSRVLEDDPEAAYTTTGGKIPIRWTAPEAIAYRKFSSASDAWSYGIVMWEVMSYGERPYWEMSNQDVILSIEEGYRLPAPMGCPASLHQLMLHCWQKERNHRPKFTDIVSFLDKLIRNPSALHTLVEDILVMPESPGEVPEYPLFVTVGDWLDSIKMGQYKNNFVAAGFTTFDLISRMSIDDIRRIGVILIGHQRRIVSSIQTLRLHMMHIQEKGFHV

[4] = target: T3, Serine/threonine-protein kinase 17A (Homo sapiens, UniProt Q9UEE5)
T3 sequence (Q9UEE5 whole entry): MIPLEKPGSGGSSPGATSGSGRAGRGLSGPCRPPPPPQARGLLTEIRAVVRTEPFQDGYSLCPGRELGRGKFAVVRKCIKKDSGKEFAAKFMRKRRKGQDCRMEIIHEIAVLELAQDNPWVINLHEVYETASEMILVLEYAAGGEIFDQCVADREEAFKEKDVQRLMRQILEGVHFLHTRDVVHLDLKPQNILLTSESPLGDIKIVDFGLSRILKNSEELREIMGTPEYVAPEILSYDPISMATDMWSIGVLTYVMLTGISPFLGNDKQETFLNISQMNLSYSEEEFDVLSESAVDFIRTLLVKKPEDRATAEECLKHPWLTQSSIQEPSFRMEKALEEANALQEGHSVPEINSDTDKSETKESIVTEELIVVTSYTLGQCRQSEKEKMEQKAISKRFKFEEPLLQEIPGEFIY

[5] = target: T4, cAMP-dependent protein kinase catalytic subunit PRKX (Homo sapiens, UniProt P51817)
T4 sequence (P51817 whole entry): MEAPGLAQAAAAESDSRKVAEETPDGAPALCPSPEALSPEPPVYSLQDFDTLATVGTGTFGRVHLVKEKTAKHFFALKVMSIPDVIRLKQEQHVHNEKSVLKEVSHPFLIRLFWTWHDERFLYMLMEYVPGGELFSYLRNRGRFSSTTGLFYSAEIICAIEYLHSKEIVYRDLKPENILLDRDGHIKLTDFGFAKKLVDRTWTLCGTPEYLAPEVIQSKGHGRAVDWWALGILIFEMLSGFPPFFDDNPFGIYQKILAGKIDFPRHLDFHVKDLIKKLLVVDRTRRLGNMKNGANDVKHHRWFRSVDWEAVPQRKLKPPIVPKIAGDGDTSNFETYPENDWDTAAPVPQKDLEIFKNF

[6] = target: Proto-oncogene tyrosine-protein kinase receptor Ret (Homo sapiens, UniProt P07949)
Chain of Proto-oncogene tyrosine-protein kinase receptor Ret (P07949 whole entry): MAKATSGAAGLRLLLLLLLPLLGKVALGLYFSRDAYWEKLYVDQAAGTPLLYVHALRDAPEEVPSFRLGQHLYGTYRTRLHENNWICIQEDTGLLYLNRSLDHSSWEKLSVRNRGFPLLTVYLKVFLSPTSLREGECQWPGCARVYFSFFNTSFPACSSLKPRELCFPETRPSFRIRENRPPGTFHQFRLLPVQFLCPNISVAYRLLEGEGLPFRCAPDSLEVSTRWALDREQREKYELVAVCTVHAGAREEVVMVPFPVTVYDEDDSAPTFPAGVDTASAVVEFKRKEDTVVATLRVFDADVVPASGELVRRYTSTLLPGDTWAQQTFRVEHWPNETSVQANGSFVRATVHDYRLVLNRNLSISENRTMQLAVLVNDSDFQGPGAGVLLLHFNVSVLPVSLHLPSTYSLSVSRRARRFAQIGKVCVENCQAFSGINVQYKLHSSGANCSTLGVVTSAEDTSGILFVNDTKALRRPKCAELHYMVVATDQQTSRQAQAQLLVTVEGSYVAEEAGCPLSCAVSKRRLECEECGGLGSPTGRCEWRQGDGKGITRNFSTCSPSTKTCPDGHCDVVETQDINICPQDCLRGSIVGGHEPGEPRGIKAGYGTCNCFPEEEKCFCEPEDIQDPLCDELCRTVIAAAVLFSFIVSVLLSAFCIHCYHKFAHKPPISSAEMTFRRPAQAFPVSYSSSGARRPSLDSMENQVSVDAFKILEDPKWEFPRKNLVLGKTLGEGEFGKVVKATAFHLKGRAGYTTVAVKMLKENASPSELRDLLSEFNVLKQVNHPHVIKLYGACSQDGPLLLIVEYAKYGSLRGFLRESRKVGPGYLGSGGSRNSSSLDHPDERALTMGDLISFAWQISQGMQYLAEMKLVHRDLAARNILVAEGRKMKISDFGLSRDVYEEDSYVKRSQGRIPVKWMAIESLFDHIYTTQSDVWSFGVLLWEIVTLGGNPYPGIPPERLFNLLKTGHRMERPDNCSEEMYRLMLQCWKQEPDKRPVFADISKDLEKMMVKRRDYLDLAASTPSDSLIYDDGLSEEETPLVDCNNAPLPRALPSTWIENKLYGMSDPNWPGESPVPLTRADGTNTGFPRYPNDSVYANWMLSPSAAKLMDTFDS

[7] = target: Atypical kinase COQ8A, mitochondrial (Homo sapiens, UniProt Q8NI60)
Chain of Atypical kinase COQ8A, mitochondrial (Q8NI60 whole entry): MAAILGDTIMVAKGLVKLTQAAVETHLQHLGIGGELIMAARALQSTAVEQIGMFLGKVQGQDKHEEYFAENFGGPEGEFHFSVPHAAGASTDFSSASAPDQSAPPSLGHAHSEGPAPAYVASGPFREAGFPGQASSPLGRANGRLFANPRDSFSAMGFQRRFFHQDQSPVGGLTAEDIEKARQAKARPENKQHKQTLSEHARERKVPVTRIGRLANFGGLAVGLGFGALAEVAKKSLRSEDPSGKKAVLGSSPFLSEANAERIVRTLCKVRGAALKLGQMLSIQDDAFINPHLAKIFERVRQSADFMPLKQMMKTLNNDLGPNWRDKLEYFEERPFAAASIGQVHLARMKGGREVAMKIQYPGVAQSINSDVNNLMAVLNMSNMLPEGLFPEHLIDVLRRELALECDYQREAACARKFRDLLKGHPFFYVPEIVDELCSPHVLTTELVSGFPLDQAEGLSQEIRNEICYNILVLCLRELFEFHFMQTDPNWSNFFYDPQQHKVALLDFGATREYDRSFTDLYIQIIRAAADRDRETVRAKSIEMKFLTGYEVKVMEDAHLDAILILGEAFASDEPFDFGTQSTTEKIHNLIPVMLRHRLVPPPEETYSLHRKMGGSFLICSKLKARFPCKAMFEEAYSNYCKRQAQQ

[8] = target: BDNF/NT-3 growth factors receptor (Homo sapiens, UniProt Q16620)
Chain of BDNF/NT-3 growth factors receptor (Q16620 whole entry): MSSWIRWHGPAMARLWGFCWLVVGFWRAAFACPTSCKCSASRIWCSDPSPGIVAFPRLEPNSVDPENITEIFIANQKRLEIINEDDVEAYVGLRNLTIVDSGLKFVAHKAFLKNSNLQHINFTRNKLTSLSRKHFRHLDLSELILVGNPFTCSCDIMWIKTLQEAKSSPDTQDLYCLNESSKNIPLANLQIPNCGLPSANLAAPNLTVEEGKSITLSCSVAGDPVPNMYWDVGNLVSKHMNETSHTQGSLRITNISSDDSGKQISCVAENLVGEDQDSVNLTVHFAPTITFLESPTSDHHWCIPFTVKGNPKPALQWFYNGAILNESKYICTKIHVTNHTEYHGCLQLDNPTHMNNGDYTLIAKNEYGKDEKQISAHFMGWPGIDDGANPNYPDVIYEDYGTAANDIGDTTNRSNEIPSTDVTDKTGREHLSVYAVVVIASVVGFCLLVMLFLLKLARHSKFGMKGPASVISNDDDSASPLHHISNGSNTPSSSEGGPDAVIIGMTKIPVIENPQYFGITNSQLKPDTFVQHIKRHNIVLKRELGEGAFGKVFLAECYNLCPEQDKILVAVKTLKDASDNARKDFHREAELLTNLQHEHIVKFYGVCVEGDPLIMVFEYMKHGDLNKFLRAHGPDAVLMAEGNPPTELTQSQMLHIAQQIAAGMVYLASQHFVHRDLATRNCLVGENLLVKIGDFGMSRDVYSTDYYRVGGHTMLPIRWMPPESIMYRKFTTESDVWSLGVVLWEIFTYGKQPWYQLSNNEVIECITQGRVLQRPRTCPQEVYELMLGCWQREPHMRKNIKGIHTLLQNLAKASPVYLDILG

[9] = target: Tyrosine-protein kinase JAK2 (Homo sapiens, UniProt O60674)
Chain of Tyrosine-protein kinase JAK2 (O60674 whole entry): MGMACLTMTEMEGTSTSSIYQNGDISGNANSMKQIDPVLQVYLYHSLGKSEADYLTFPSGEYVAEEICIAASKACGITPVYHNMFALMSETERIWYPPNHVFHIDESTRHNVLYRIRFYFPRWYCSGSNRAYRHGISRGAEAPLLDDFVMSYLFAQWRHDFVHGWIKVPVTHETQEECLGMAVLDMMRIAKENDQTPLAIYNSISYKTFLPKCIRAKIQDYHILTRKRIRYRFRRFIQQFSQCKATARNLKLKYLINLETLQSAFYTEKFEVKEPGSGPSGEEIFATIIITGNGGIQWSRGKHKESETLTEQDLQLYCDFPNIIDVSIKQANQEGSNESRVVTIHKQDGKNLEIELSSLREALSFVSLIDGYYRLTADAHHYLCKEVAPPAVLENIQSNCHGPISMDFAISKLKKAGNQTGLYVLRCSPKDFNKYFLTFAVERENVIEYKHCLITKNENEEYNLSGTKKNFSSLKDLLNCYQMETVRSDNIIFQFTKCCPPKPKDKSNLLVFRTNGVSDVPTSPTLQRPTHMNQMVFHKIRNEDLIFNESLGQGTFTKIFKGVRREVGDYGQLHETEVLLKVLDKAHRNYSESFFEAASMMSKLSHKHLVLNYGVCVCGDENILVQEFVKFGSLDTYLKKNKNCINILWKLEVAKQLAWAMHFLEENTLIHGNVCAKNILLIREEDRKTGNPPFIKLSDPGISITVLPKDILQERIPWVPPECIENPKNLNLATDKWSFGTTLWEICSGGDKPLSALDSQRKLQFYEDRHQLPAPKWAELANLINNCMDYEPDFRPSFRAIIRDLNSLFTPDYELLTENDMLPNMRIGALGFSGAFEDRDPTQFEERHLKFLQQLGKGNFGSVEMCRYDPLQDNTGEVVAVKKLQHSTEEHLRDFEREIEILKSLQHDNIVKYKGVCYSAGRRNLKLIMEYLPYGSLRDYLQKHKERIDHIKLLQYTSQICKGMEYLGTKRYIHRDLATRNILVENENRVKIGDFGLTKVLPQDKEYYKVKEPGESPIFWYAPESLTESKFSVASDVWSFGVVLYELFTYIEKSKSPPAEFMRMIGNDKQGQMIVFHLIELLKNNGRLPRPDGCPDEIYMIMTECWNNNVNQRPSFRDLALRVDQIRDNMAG

SMILES	Kd [1]	Kd [2]	Kd [3]	Kd (Ephrin type-A receptor 6)	Kd [4]	Kd [5]	Kd [6]	Kd [7]	Kd [8]	Kd [9]
COCC(=O)NC/C=C/c1ccc2ncnc(Nc3ccc(Oc4ccc(C)nc4)c(C)c3)c2c1 [CP-724714]	> 10 µM	> 10 µM	> 10 µM	> 10 µM	> 10 µM	> 10 µM	> 10 µM	> 10 µM	> 10 µM	> 10 µM
NC(=O)c1ccc(-c2nc(-c3ccc4c(c3)OCO4)c(-c3ccccn3)[nH]2)cc1 [SB-431542]	> 10 µM	> 10 µM	> 10 µM	> 10 µM	> 10 µM	> 10 µM	> 10 µM	> 10 µM	> 10 µM	> 10 µM
Nc1nc(Nc2ccc(S(N)(=O)=O)cc2)nn1C(=O)c1c(F)cccc1F [JNJ-7706621]		> 10 µM		> 10 µM					> 10 µM	
CCOc1cc2ncc(C#N)c(Nc3ccc(F)c(Cl)c3)c2cc1NC(=O)/C=C/CN(C)C [PELITINIB]	> 10 µM	> 10 µM	> 10 µM			> 10 µM	> 10 µM	> 10 µM	> 10 µM	> 10 µM
CCN1CCN(Cc2ccc(NC(=O)Nc3ccc(Oc4cc(NC)ncn4)cc3)cc2C(F)(F)F)CC1 [AST-487]						> 10 µM				
Oc1ccc(-c2nc(-c3ccncc3)c(-c3ccc(F)cc3)[nH]2)cc1 [SB-202190]	> 10 µM	4.2 µM	> 10 µM	2.2 µM	> 10 µM	> 10 µM	> 10 µM	> 10 µM	> 10 µM	> 10 µM
